Reference: article PMC12851007 (Angewandte Chemie (International Ed. in English), 2025)
Where two headings read alike, the source gives them in different places. Where a SMILES comes first, the peptide text is derived from it.

Assay: CF dye efflux assay, POPC vesicles
Type: biochemical
Details: error = SD of fit
Excerpt: Time-dep endent fluores cence intensit y traces, I (t), were subsequentl y normalized to fractional intensities, If(t), using equation (1). Therein, I 0 is the intensity just before addition of peptide and I ∞ is the constant intensit y after addition of the calibration cockt ail.
IIf (tt ) = II (tt )−II0II∞ − II0 (1)
The concentration-dependent fractional intensities just before the addition of the calibration cocktail, If, were then normalized to fractional membrane activities, Y, using equation (2).
Therein, If,0 is the fractional intensit y just before addition of the calibration cocktail in absence of peptide and I f,∞ is the constant fractional intensity after addition of the calibration cocktail.
YY = IIf − IIf,0IIf,∞ − IIf,0 (2)
The fractional membrane activities, Y, were subsequently plotted against the peptide concentration, c, and analysed using the Hill equation (3) to obtain the effective molar concentration, EC50, and the Hill coefficient, n. Y0 and Y ma x are the fractional membrane activities in absen ce o f p eptide and at max imal peptide concent rations. For peptides with too little activity to determine Y ma x ex perimentall y, Y max was fixed at 1.0 during fitting.
YY = YY0 + YYmax − YY0nn (3)
Vesicle preparation. 100 µ L of a solution of 25 mg/ml of POPC in chloroform or 200 µ L of a solution of 25 mg/ml of EYPC in chloroform was purged with a stream of nitrogen and dried overnight under high vacuum. The thin lipid film was reh ydrated with 1ml of reh yd ration buffer (= inside buffer, see Table S3 ) b y agitation at room temperature for 30 min and then subjected to 5 freeze- thaw cycles (freezing in liquid nitrogen and thawing at 40 °C).
Subsequently, the liposome suspension was extruded ≥ 15 times through a polycarbonate membrane (pore size 100 nm). Extravesicular components were then removed by size exclusion chromatography using a 1.5 × 12 cm polyprop ylene column (Bio- Rad, German y) with 1.0 g Sephad ex G-50 (medium) as a stationa r y ph ase and the resp ectiv e outside buffer for […]
Ta b l e S 3. Combinations of inside and outside buffer for CF -LUVs.
No. Lipid Inside buffer = rehydration buffer Outside buffer
(1) EYPC 10 mM Hepes, 50 mM CF, pH 7.5 10 mM Hepes, 97 mM NaCl, pH 7.5
(2) POPC 10 mM Hepes, 50 mM CF, pH 7.5 10 mM Hepes, 97 mM NaCl, pH 7.5
(3) POPC 10 mM Hepes, 50 mM CF, pH 7.5 10 mM Hepes, 175 mM glucose, pH 7.5 [a] [a] Glucose b uffers (183 mOsm/L at 25 °C) were used within one week after preparation.
Vesicle quality control. The size distribution of the liposomes was confirmed by DLS to be unimodal and avera ge ve sicles diameters wer e in the ran ge from 115 to 130 nm. The final lipid content in the liposome s uspension after prep ar ation and sep aration w as det ermined b y NMR. CF vesicles are comparabl y leak y and cont ain minor amounts of ex travesi cular CF after a f ew days. When the fluores cence chan ge after vesicl e lys is b y addition of 20 µ L 1.6% (wt/vol) TX-100 was less than a factor of four, the vesicle suspension was no longer used.
Assay protocol. An appropriate volume of the liposome stock solutions was diluted to 2 mL with outside buffer in a 10 ×10 mm quartz glass cuvette to afford a phospholipid concentration of 25 µM. The cuvette was placed into a thermostatted fluorimeter sample holder and gentl y stirred at 300 rpm at (25.0± 0.1) °C. Subsequentl y, the time-dependent change in fluorescence intensity (C F: λ exc = 492 nm, λ em = 517 nm) was recorded during addition of 20 µL peptide stock solution of var ying concentrations at 60 s and 20µ L of a calibration cocktail (1. 6% […]
intensities, If(t), using equation (1) and the concentration- dependent fractional intensities just before the addition of th e calibration co cktail, I f, w ere then normaliz ed to fr actional membran e activities, Y, using equation (2). The fractional membrane activities, Y, were subsequently plotted against the peptide concentration, c, and anal ysed using the Hill equation (3) to obtain […]

[1] = single-channel, 25 µM POPC⸧CF-LUVs, inside 10 mM Hepes, 50 mM CF, pH 7.5, outside 10 mM Hepes, 175 mM glucose, pH 7.5, n = 1, read-out: EC50, CF assay in glucose-containing buffer

| SMILES | EC50, CF assay, isosmotic (25 µM POPC⸧CF-LUVs diluted into 10 mM Hepes, 97 mM NaCl, pH 7.5, 25 °C, fractional activity at 590 s, n = 1 (Table S6, Figures S17, S19)) | EC50, CF assay, POPC (25 µM lipid, POPC⊃CF-LUVs, 10 mM Hepes, 97 mM NaCl, pH 7.5, 25 °C, fractional activity at 590 s, Hill fit, n = 1 (Table S5)) | EC50 [1] [µM] | EC50 (25 µM lipid, POPC⊃CF-LUVs, 10 mM Hepes, 97 mM NaCl, pH 7.5, 25 °C, fractional activity at 590 s, Hill fit, n = 1 (Table S5), read-out: EC50, CF assay, POPC) [µM] |
| --- | --- | --- | --- | --- |
| CC[C@H](C)[C@H](NC(=O)[C@H](CCCCN)NC(=O)[C@@H](NC(=O)[C@@H](N)CCC(N)=O)[C@@H](C)CC)C(=O)N[C@@H](Cc1c[nH]c2ccccc12)C(=O)N[C@@H](Cc1ccccc1)C(=O)N[C@@H](CCC(N)=O)C(=O)N[C@@H](CC(N)=O)C(=O)N[C@@H](CCCNC(=N)N)C(=O)N[C@@H](CCCNC(=N)N)C(=O)N[C@@H](CCSC)C(=O)N[C@@H](CCCCN)C(=O)N[C@@H](Cc1c[nH]c2ccccc12)C(=O)N[C@@H](CCCCN)C(=O)N[C@@H](CCCCN)C(=O)O (H-QIKIWFQNRRMKWKK-OH) | too low to determine | too low to determine | – | – |
| CC(C)C[C@H](NC(=O)[C@H](CC(C)C)NC(=O)[C@H](CCCNC(=N)N)NC(=O)[C@@H](N)CC(C)C)C(=O)N[C@@H](CCCNC(=N)N)C(=O)N[C@@H](Cc1c[nH]c2ccccc12)C(N)=O [LRLLRW] (H-LRLLRW-NH2) | – | – | 101 ± 9 | – |
| CC(C)[C@H](NC(=O)[C@H](CCCCN)NC(=O)[C@H](CCCNC(=N)N)NC(=O)[C@H](CCCCN)NC(=O)[C@H](CCCCN)NC(=O)[C@H](CCCCN)NC(=O)[C@@H]1CCCN1C(=O)[C@H](CCC(N)=O)NC(=O)[C@H](CO)NC(=O)[C@H](Cc1c[nH]c2ccccc12)NC(=O)[C@H](CC(=O)O)NC(=O)[C@@H](NC(=O)[C@H](Cc1c[nH]c2ccccc12)NC(=O)[C@H](Cc1c[nH]c2ccccc12)NC(=O)[C@@H](NC(=O)[C@H](CC(=O)O)NC(=O)[C@H](Cc1c[nH]c2ccccc12)NC(=O)[C@H](Cc1c[nH]c2ccccc12)NC(=O)[C@@H](NC(=O)[C@H](CC(=O)O)NC(=O)[C@@H](N)CCCCN)[C@@H](C)O)[C@@H](C)O)[C@@H](C)O)C(=O)O [Pep‐1] (H-KDTWWDTWWTDWSQPKKKRKV-OH) | – | – | 540 ± 90 | 114 ± 5 |
| CC[C@H](C)[C@H](NC(=O)[C@H](CCCCN)NC(=O)[C@H](CCCCN)NC(=O)[C@H](C)NC(=O)[C@H](CC(C)C)NC(=O)[C@H](C)NC(=O)[C@H](C)NC(=O)[C@H](CC(C)C)NC(=O)[C@H](C)NC(=O)[C@H](CCCCN)NC(=O)[C@H](CC(C)C)NC(=O)[C@H](CC(N)=O)NC(=O)[C@@H](NC(=O)[C@H](CCCCN)NC(=O)CNC(=O)[C@H](CC(C)C)NC(=O)[C@H](CC(C)C)NC(=O)[C@H](Cc1ccc(O)cc1)NC(=O)CNC(=O)[C@H](C)N)[C@@H](C)CC)C(=O)N[C@@H](CC(C)C)C(=O)O [TP10] | – | – | 0.12 ± 0.02 | – |
